Each structure is given as a SMILES string.

In this assay the target is D(3) dopamine receptor (Homo sapiens, UniProt P35462). Briefly: biochemical.
Chain of D(3) dopamine receptor (P35462 whole entry): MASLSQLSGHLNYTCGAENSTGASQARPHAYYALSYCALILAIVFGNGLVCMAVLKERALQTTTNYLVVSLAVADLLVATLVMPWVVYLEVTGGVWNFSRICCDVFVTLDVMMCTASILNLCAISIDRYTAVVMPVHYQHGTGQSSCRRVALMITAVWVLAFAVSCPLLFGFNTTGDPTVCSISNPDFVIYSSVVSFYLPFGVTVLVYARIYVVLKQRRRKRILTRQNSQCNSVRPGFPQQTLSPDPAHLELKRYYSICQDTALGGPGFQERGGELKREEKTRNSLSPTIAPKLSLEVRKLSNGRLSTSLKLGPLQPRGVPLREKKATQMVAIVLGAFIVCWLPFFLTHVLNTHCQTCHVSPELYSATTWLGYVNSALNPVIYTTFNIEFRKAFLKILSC
Description: Displacement of [3H]-N-methylspiperone from human dopamine D3 receptor (unknown origin) expressed in HEK293 cells after 1 hr by liquid scintillation counting
In turn, `COc1ccccc1N1CCN(CCCCNC(=O)c2ccc3ccccc3n2)CC1` displayed a Ki of 3.46 nM. This counts as single-digit nanomolar.
With `O=C(NCCCCN1CCN(c2cccc3ccccc23)CC1)c1cc2ccccc2o1` the figure was 0.244 nM.
The compound `COc1c(Cl)cccc1N1CCN(CC(O)CCNC(=O)c2cnc3ccccc3c2)CC1` (stereo not given) had an inhibitory constant (Ki) of 31.6 nM. Compared with the last compound, the Ki is about 130-fold higher.
With `O=C(NCCCCN1CCN(c2cccc(Cl)c2Cl)CC1)c1cnc2ccc(F)cc2c1` the figure was 0.57 nM; with `O=C(NCCC(O)CN1CCN(c2cccc(Cl)c2Cl)CC1)c1cnc2ccc(F)cc2c1` (stereo not given), 8.05 nM.
With `COc1c(Cl)cccc1N1CCN(CCCCNC(=O)c2cc3ccccc3o2)CC1` the figure was 0.907 nM; with `COc1ccc2[nH]c(C(=O)NCCCCN3CCN(c4cccc5ccccc45)CC3)cc2c1`, 0.173 nM; with `COc1ccccc1N1CCN(CC(O)CCNC(=O)c2ccc3ccccc3n2)CC1` (stereo not given), 97.9 nM.
Then `COc1ccccc1N1CCN(CCCCNC(=O)c2ccc3cc(F)ccc3n2)CC1`, with 2.51 nM; and `COc1ccccc1N1CCN(CC(O)CCNC(=O)c2ccc3cc(F)ccc3n2)CC1` (stereo not given), with 53.1 nM; and `COc1ccccc1N1CCN(CCCCNC(=O)c2cnc3ccc(F)cc3c2)CC1`, with 2.14 nM.
For `COc1ccccc1N1CCN(CC(O)CCNC(=O)c2cnc3ccc(F)cc3c2)CC1` (stereo not given), the affinity, expressed as Ki, was 44.8 nM.
In the case of `COc1ccccc1N1CCN(CC(O)CCNC(=O)c2cnc3ccc(C)cc3c2)CC1` (stereo not given), the affinity, expressed as Ki, was 52.9 nM.
Then `COc1ccc2ncc(C(=O)NCCC(O)CN3CCN(c4ccccc4OC)CC3)cc2c1` (stereo not given), with 69.9 nM.
On to `COc1ccccc1N1CCN(CC(O)CCNC(=O)c2ccc3cccnc3c2)CC1` (stereo not given), for which the affinity, expressed as Ki, was 37.7 nM.

What is called Ki is a measure of affinity in units of concentration, obtained from inhibition or displacement.

Source of the values: ChEMBL document CHEMBL3596172 (J Med Chem, 2015).
